Several values for one entry are separate records, joined by “and”; a condition that tells them apart may be missing. Equal entries are not always repeated.
Experiments:
[1] = target: T1, HsGUS (human GUS) (Homo sapiens, UniProt P08236); assay: GUS inhibition assay, hydrolysis of 4-methylumbelliferyl-β-glucuronide, HsGUS; format: biochemical; parameters: GUS activity (hydrolysis rate of MUG): unit not given here
T1 construct: HsGUS was prepared as described[37]; made in house
T1 sequence (P08236 23-651): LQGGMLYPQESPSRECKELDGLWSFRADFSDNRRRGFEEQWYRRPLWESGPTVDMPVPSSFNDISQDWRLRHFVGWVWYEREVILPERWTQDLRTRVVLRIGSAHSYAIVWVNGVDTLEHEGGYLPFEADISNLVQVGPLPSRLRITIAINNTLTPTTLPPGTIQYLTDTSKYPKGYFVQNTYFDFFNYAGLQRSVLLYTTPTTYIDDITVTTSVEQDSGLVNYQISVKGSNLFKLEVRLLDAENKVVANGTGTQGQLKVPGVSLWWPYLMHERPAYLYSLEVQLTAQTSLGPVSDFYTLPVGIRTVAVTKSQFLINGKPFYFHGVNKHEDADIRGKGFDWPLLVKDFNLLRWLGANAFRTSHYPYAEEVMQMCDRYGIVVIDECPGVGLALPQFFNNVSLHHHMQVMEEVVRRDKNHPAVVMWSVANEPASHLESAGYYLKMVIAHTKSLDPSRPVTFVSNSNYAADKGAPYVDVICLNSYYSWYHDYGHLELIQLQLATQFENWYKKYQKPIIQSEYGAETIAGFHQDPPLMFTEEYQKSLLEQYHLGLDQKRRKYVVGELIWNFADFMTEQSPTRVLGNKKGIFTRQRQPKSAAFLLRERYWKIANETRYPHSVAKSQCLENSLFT

[2] = parameters: method as in PMID 18537837; settings: endocyclic amine; cited from earlier work

CCC[C@@H]1NC[C@@H](O)[C@H](O)[C@H]1C(=O)O [Inhibitor 2, C6-propyl UIFG]
Ki ([1]; HsGUS, 50 mM sodium acetate pH 4.5, 37 °C): 36.1 ± 7.5 µM
GUS activity (hydrolysis rate of MUG) ([1]; [Inhibitor 2] =2 μM, [MUG] 0.1 mM): 948.853 and 951.385
GUS activity (hydrolysis rate of MUG) ([1]; [Inhibitor 2] =2 μM, [MUG] 0.2 mM): 1632.03 and 1685.82
GUS activity (hydrolysis rate of MUG) ([1]; [Inhibitor 2] =2 μM, [MUG] 0.4 mM): 2642.25 and 2523.4
GUS activity (hydrolysis rate of MUG) ([1]; [Inhibitor 2] =2 μM, [MUG] 0.6 mM): 3352.21 and 3311.67
GUS activity (hydrolysis rate of MUG) ([1]; [Inhibitor 2] =2 μM, [MUG] 0.8 mM): 3926.69 and 3841.33
GUS activity (hydrolysis rate of MUG) ([1]; [Inhibitor 2] =2 μM, [MUG] 1.2 mM): 4682.68 and 4814.95
GUS activity (hydrolysis rate of MUG) ([1]; [Inhibitor 2] =2 μM, [MUG] 1.6 mM): 5075.17 and 5261.75
GUS activity (hydrolysis rate of MUG) ([1]; [Inhibitor 2] =2 μM, [MUG] 2 mM): 5616.94 and 5799.63
GUS activity (hydrolysis rate of MUG) ([1]; [Inhibitor 2] =5 μM, [MUG] 0.1 mM): 870.401 and 901.046
GUS activity (hydrolysis rate of MUG) ([1]; [Inhibitor 2] =5 μM, [MUG] 0.2 mM): 1774.12 and 1609.49
GUS activity (hydrolysis rate of MUG) ([1]; [Inhibitor 2] =5 μM, [MUG] 0.4 mM): 2566.62 and 2497.87
GUS activity (hydrolysis rate of MUG) ([1]; [Inhibitor 2] =5 μM, [MUG] 0.6 mM): 3244.91 and 3390.27
GUS activity (hydrolysis rate of MUG) ([1]; [Inhibitor 2] =5 μM, [MUG] 0.8 mM): 3688.45 and 3865.44
GUS activity (hydrolysis rate of MUG) ([1]; [Inhibitor 2] =5 μM, [MUG] 1.2 mM): 4481.74 and 4357.11
GUS activity (hydrolysis rate of MUG) ([1]; [Inhibitor 2] =5 μM, [MUG] 1.6 mM): 5234.04 and 5031.9
GUS activity (hydrolysis rate of MUG) ([1]; [Inhibitor 2] =5 μM, [MUG] 2 mM): 5683.23 and 5771.06
GUS activity (hydrolysis rate of MUG) ([1]; [Inhibitor 2] =10 μM, [MUG] 0.1 mM): 788.919 and 835.551
GUS activity (hydrolysis rate of MUG) ([1]; [Inhibitor 2] =10 μM, [MUG] 0.2 mM): 1388.11 and 1357.62
GUS activity (hydrolysis rate of MUG) ([1]; [Inhibitor 2] =10 μM, [MUG] 0.4 mM): 2139.7 and 2292.26
GUS activity (hydrolysis rate of MUG) ([1]; [Inhibitor 2] =10 μM, [MUG] 0.6 mM): 2815.06 and 3009.55
GUS activity (hydrolysis rate of MUG) ([1]; [Inhibitor 2] =10 μM, [MUG] 0.8 mM): 3419.24 and 3416.94
GUS activity (hydrolysis rate of MUG) ([1]; [Inhibitor 2] =10 μM, [MUG] 1.2 mM): 4195.01 and 4091.63
GUS activity (hydrolysis rate of MUG) ([1]; [Inhibitor 2] =10 μM, [MUG] 1.6 mM): 5141.39 and 4873.96
GUS activity (hydrolysis rate of MUG) ([1]; [Inhibitor 2] =10 μM, [MUG] 2 mM): 5569.48 and 4956.18
GUS activity (hydrolysis rate of MUG) ([1]; [Inhibitor 2] =20 μM, [MUG] 0.1 mM): 633.046 and 650.421
GUS activity (hydrolysis rate of MUG) ([1]; [Inhibitor 2] =20 μM, [MUG] 0.2 mM): 1058.97 and 1051.89
GUS activity (hydrolysis rate of MUG) ([1]; [Inhibitor 2] =20 μM, [MUG] 0.4 mM): 1746.1 and 1806.97
GUS activity (hydrolysis rate of MUG) ([1]; [Inhibitor 2] =20 μM, [MUG] 0.6 mM): 2323.32 and 2357.04
GUS activity (hydrolysis rate of MUG) ([1]; [Inhibitor 2] =20 μM, [MUG] 0.8 mM): 2744.58 and 2819.54
GUS activity (hydrolysis rate of MUG) ([1]; [Inhibitor 2] =20 μM, [MUG] 1.2 mM): 3443.09 and 3077.07
GUS activity (hydrolysis rate of MUG) ([1]; [Inhibitor 2] =20 μM, [MUG] 1.6 mM): 3957.48 and 3836.46
GUS activity (hydrolysis rate of MUG) ([1]; [Inhibitor 2] =20 μM, [MUG] 2 mM): 4613.38 and 4482.85
GUS activity (hydrolysis rate of MUG) ([1]; [Inhibitor 2] =40 μM, [MUG] 0.1 mM): 425.121 and 430.469
GUS activity (hydrolysis rate of MUG) ([1]; [Inhibitor 2] =40 μM, [MUG] 0.2 mM): 709.381 and 742.235
GUS activity (hydrolysis rate of MUG) ([1]; [Inhibitor 2] =40 μM, [MUG] 0.4 mM): 1260.88 and 1281.33
GUS activity (hydrolysis rate of MUG) ([1]; [Inhibitor 2] =40 μM, [MUG] 0.6 mM): 1728.03 and 1805.44
GUS activity (hydrolysis rate of MUG) ([1]; [Inhibitor 2] =40 μM, [MUG] 0.8 mM): 2092.2 and 2090.09
GUS activity (hydrolysis rate of MUG) ([1]; [Inhibitor 2] =40 μM, [MUG] 1.2 mM): 2609.86 and 2615.59
GUS activity (hydrolysis rate of MUG) ([1]; [Inhibitor 2] =40 μM, [MUG] 1.6 mM): 3152.02 and 3056.96
GUS activity (hydrolysis rate of MUG) ([1]; [Inhibitor 2] =40 μM, [MUG] 2 mM): 3549.78 and 3510.91
GUS activity (hydrolysis rate of MUG) ([1]; [Inhibitor 2] =75 μM, [MUG] 0.1 mM): 269.697 and 248.688
GUS activity (hydrolysis rate of MUG) ([1]; [Inhibitor 2] =75 μM, [MUG] 0.2 mM): 469.532 and 449.551
GUS activity (hydrolysis rate of MUG) ([1]; [Inhibitor 2] =75 μM, [MUG] 0.4 mM): 868.241 and 807.629
GUS activity (hydrolysis rate of MUG) ([1]; [Inhibitor 2] =75 μM, [MUG] 0.6 mM): 1207.03 and 1153.12
GUS activity (hydrolysis rate of MUG) ([1]; [Inhibitor 2] =75 μM, [MUG] 0.8 mM): 1515.37 and 1395.3
GUS activity (hydrolysis rate of MUG) ([1]; [Inhibitor 2] =75 μM, [MUG] 1.2 mM): 1853.64 and 1948.04
GUS activity (hydrolysis rate of MUG) ([1]; [Inhibitor 2] =75 μM, [MUG] 1.6 mM): 2229.7 and 2415.81
GUS activity (hydrolysis rate of MUG) ([1]; [Inhibitor 2] =75 μM, [MUG] 2 mM): 2629.91 and 2703.96
pKa [2]: 9.4

Source: PMC7933434, “Entropy-driven binding of gut bacterial β-glucuronidase inhibitors ameliorates irinotecan-induced toxicity” (Communications Biology, 2021)
